Converted amounts (≈) assume the structure as drawn.
Experiments:
Type in all cases: cell-based
[1] = system: Coagulase negative staphylococi; assay: MIC by agar dilution method using Muller-Hinton agar; settings: read-out: Inhibitory Activity (MIC); strain b: Coagulase negative staphylococi
Text: (§1) To this end, the compound of Example 2 and the currently used oxazolidinone class Linezolid were examined for minimal inhibitory concentration (hereinafter, referred to as “MIC”) against Gram-positive strains and resistant bacteria including methicillin-resistant Staphylococcus aureus (MRSA) and vancomycin resistant enterococci by an agar dilution method using Muller-Hinton agar.
(§2) As used herein, the term MIC is intended to refer to the lowest concentration of an antibiotic that will inhibit the growth of a microorganism. MIC values are expressed as μg/ml. Bacterial strains used for this assay included Haemophilus influenza, Coagulase negative staphylococi, Staphylcoccus aureus (MRSA), Enterococcus faecalis (VER), Enterococcus faecium (VR 1, VR 2), and Vancomycin resistant enterococci 1˜6.
(§3) After being incubated for 18 hours in a Muller-Hinton broth, the strains were transferred to fresh broth at a concentration of approximately 10^7 CFU/ml. Isolates were distributed with a multipoint inoculator (MIC-2000 Dynatech) at 10^4 CFU per spot onto agar plates containing the compound of the Examples or Comparative Examples.

[2] = system: Enterococcus faecalis (VRE); assay: as above; settings: strain d: Enterococcus faecalis (VRE); read-out: Inhibitory Activity (MIC)
Text: as §1, §2, §3

[3] = system: Enterococcus faecium (VR 1); assay: as above; settings: strain e: Enterococcus faecium (VR 1); read-out: Inhibitory Activity (MIC)
Text: as §1, §2, §3

[4] = system: Enterococcus faecium (VR 2); assay: as above; settings: strain f: Enterococcus faecium (VR 2); read-out: Inhibitory Activity (MIC)
Text: as §1, §2, §3

Haemophilus influenza = assay: as above; settings: read-out: Inhibitory Activity (MIC); strain a: Haemophilus infuenz
Text: as §1, §2, §3

[5] = system: Staphylcoccus aureus (MRSA); assay: as above; settings: Staphylococcus aureus; strain c: Staphylcoccus aureus (MRSA); read-out: Inhibitory Activity (MIC)
Text: as §1, §2, §3

[6] = system: Vancomycin resistant enterococci 1; assay: as above; settings: strain g: Vancomycin resistant enterococci 1; read-out: Inhibitory Activity (MIC)
Text: as §1, §2, §3

[7] = system: Vancomycin resistant enterococci 2; assay: as above; settings: strain h: Vancomycin resistant enterococci 2; read-out: Inhibitory Activity (MIC)
Text: as §1, §2, §3

[8] = system: Vancomycin resistant enterococci 3; assay: as above; settings: strain i: Vancomycin resistant enterococci 3; read-out: Inhibitory Activity (MIC)
Text: as §1, §2, §3

[9] = system: Vancomycin resistant enterococci 4; assay: organism not typed; settings: read-out: Inhibitory Activity (MIC)
Text: as §1, §2, §3

[10] = system: Vancomycin resistant enterococci 5; assay: organism not typed; settings: read-out: Inhibitory Activity (MIC)
Text: as §1, §2, §3

[11] = system: Vancomycin resistant enterococci 6; assay: organism not typed; settings: read-out: Inhibitory Activity (MIC)
Text: as §1, §2, §3

[12] = system: Gram-positive strains and resistant bacteria including MRSA and vancomycin resistant enterococci; assay: MIC by agar dilution, text summary over the strain panel; settings: read-out: MIC against Haemophilus influenza, Coagulase negative staphylococci and vancomycin resistant enterococci (VRE)
Text: as §1, §2, §3

Row | SMILES | MIC [1] | MIC [2] | MIC [3] | MIC [4] | MIC (Haemophilus influenza) | MIC [5] | MIC [6] | MIC [7] | MIC [8] | MIC [9] | MIC [10] | MIC [11] | MIC [12]
1 | CC(=O)NC[C@H]1CN(c2cc(F)c(N3CC(F)C4(CC4)C3)c(F)c2)C(=O)O1 (stereo partly drawn) [Example 2, (S)—N-{{3-[3,5-Difluoro-4-(7-fluoro-5-azaspiro[2,4]heptan-5-yl)phenyl]-2-oxo-5-oxazolidinyl}methyl}acetamide] | 0.781 µg/mL (≈ 2.04 µM) | 1.56 µg/mL (≈ 4.08 µM) | 1.56 µg/mL (≈ 4.08 µM) | 1.56 µg/mL (≈ 4.08 µM) | 0.781 µg/mL (≈ 2.04 µM) | 1.56 µg/mL (≈ 4.08 µM) | 3.12 µg/mL (≈ 8.15 µM) | 1.56 µg/mL (≈ 4.08 µM) | 3.12 µg/mL (≈ 8.15 µM) | 0.781 µg/mL (≈ 2.04 µM) | 0.781 µg/mL (≈ 2.04 µM) | 0.781 µg/mL (≈ 2.04 µM) | –
2 | CC(=O)NC[C@H]1CN(c2ccc(N3CCOCC3)c(F)c2)C(=O)O1 [Linezolid, reference compound] | 3.12 µg/mL (≈ 9.26 µM) | – | – | – | 3.12 µg/mL (≈ 9.26 µM) | – | – | – | – | – | – | – | 1.56 to 3.12 µg/mL (≈ 4.63 to 9.26 µM)

From US8168797B2, “Oxazolidinone derivative with difluorophenyl moiety, pharmaceutically acceptable salt thereof, preparation method thereof and antibiotic composition containing the same as an active ingredient” (Korea Institute of Science and Technology, priority 2008, dated 2012)
